Data set [1] concerns U-87 MG human glioblastoma cells. The data set is described as follows: cells. The settings on record: read-out: IC50 (μM) ± S.D.; U-87 MG, MTT, 72 h, 6000 cells/well, cyclotides 0.1-10 μM, TMZ 0.5-5000 μM, best fit nonlinear regression, triplicate wells, n = 3. The protocol: SH-SY5Y human neuroblastoma cells (population doubling (PD) 20−24), T-98G, and U-87 MG human glioblastoma cells were removed from cryogenic storage, thawed rapidly in a water bath (37 °C) and reconstituted in 75 cm^2 flasks. For SH-SY5Y, the following media were used: Dulbecco’s modified Eagle’s medium/Nutrient F12 Ham (Sigma-Aldrich, Cat. No. D8437) containing 10% heat-inactivated fetal bovine serum, 4 mM L-glutamine, 100 U/mL penicillin, and 100 μg/mL streptomycin. For U-87 MG and T-98G Eagle’s minimal essential medium (ATCC: The Global Bioresource Center, Cat. No. ATCC 30-2003), containing 10% heat-inactivated fetal bovine serum, 4 mM L-glutamine, 100 U/mL penicillin, and 100 μg/mL streptomycin were used.
Cells were incubated at 37 °C in a humidified atmosphere of 5% CO2 and 95% air until recovered and ready for passaging (approximately 4 days). At between 80% and 90% confluence, the cells were trypsinized with warm (37 °C) sterile 0.5% Trypsin-EDTA (Thermo Fisher, Cat. No. 15400054) and passaged into 175 cm^2 flasks, where they were left to multiply until they reached 80−90% confluence. To plate cells: cultures were trypsinized, resuspended in 20 mL sterile PBS, counted using a cell counter (Olympus cell counter model R1), and plated in 96-well plates at an optimal density of 6000 cells/well in the designated culture media. The cells were left to adhere overnight before treatment the following day, when the culture medium was removed and replaced with the treatment medium. All incubations were conducted in triplicate wells and repeated at least three times (n = 3).
To calculate TMZ IC50 values in each cell line, TMZ was dissolved in DMSO at a stock concentration of 103 mM, which was then diluted into culture medium on the day of use, with the DMSO final concentration always less than 0.1%. The following concentrations of TMZ were used in the experiments: 0.5, 5, 50, 500, 2500, 5000 μM. The media were sterilized for each treatment media with a 0.22 μm filter before they were added to cell cultures. To determine the IC50 values for each cyclotide in each cell type, cyclotides were dissolved into 10% DMSO and then dilutions used to screen cyclotides with a final DMSO concentration of less than 0.1% The following concentrations of cyclotides were used: 0.1, 1, 5, 10 μM. For co-exposure experiments, a simultaneous exposure of cyclotide and TMZ at each respective dose was added to cell cultures (100 μL final volume per well).
In accordance with the methods developed by Mosmann and colleagues, the MTT assay was conducted using the Roche cell proliferation kit (Cat. No. 11465007001). Briefly, cells that are active can cleave MTT. The MTT is originally a yellow tetrazolium salt that undergoes a colorimetric change to purple formazan crystals, and the change in absorbance can be measured as an indicator of cell viability/proliferation. For these experiments, cells were plated into 96-well flat-bottom plates, as described in the cell culture above. […] To align with our previous work, experiments were conducted with a 72 h time frame for cytotoxicity evaluation.
After a 72 h incubation period, plates were removed from the incubator and 10 µL of MTT was added to each well. The plates were returned to the incubator for an additional 4 h, after which 100 µL of a solubilization solution was added to each well. The plates were returned to incubation overnight, and the next day absorbances were read at 570 nm on a Molecular Devices FlexStation 3 using SoftMax Pro Microplate Data Acquisition and Analysis Software (version 7.0.2).

For data set [2] the following is noted: cited from earlier work. From the text: One of our objectives is to promote research that investigates methods to decrease the required concentrations of drugs such as TMZ for efficacy in vivo. Therefore, it is important to analyze the stability of cyclotides in human serum. The trypsin inhibitor cyclotide, MCoTI-II, has been extracted from the seeds of Momordica cochinchinensis Spreng. [Cucurbitaceae]. […] Huang and colleagues repeated these experiments with MCoTI-II and an ...

In another data set the test system is glioblastoma cells. The settings on record: cited from earlier work.
The subject of the next data set is U-87 MG cells. The settings on record: cited from earlier work.
A short description of data set [3]: Human serum stability assay (UPLC-MS). The settings on record: data points of 3 h, 8 h and 24 h; human serum from male AB plasma, 300 µM stock diluted 10 times, 37 °C, UPLC-MS peak area vs control, triplicate. Here is the method: Established protocols were used to analyze peptide stability in human serum isolated from male AB plasma (Sigma-Aldrich). Briefly, thawed plasma was centrifuged for 10 min at 15,000× g to concentrate lipids. The supernatant was carefully removed with a Pasteur pipette and incubated for 15 min at 37 °C, 5% CO2. […] Controls were synthetic Kalata B1 or TMZ in PBS that were incubated in parallel with human serum test compounds. Serum proteins were denatured with urea (final concentration of 3M) at 4 °C for 10 min., at each time point. Afterwards, trichloroacetic acid (7% final v/v) was added for 10 min to precipitate the proteins. Each sample was centrifuged for 10 min at 15,000× g; the supernatant was removed an evaluated in triplicate using UPLC-MS.
We conducted peptide stability assays in human serum isolated from male AB plasma and then analyzed with UPLC-MS. Synthetic Kalata B1 and TMZ were incubated with human serum and the portion of the peptide remaining was quantified by calculating the area of the respective elution peak in UPLC-MS, compared to the control.
Percentage of Kalata B1 and TMZ remaining upon incubation with human serum. The portion of serum-treated peptide remaining was determined by calculating the area of the respective elution peak in UPLC-MS and comparing it with the control without incubation. Data points are means ± SEM.

Where a SMILES comes first, the peptide text is derived from it. Bridges are numbered along the chain shown (N, C = ends).

The term IC50 denotes the point on the concentration scale where inhibition reaches its midpoint.

For `CC[C@H](C)[C@@H]1NC(=O)[C@H](C)NC(=O)[C@H](CO)NC(=O)[C@H]([C@@H](C)O)NC(=O)[C@H](CC(C)C)NC(=O)[C@@H]2CSSC[C@@H]3NC(=O)[C@H](C(C)C)NC(=O)[C@H](CCCCN)NC(=O)[C@H](CO)NC(=O)[C@H](CCCCN)NC(=O)[C@@H]4CSSC[C@H](NC(=O)[C@H](CO)NC(=O)[C@H](CCC(=O)O)NC(=O)CNC(=O)[C@H](CSSC[C@H](NC(=O)CNC1=O)C(=O)N[C@@H](CO)C(=O)N4)NC(=O)[C@@H]1CCCN1C(=O)[C@H]([C@@H](C)CC)NC(=O)CNC(=O)[C@H](CC(N)=O)NC(=O)[C@H](CCCNC(=N)N)NC(=O)[C@H](Cc1ccc(O)cc1)NC3=O)C(=O)N[C@@H](C(C)C)C(=O)N[C@@H](Cc1c[nH]c3ccccc13)C(=O)N[C@@H]([C@@H](C)CC)C(=O)N1CCC[C@H]1C(=O)N2` [CyO3, Cycloviolacin O3] (cyclo(AIGCSCKSKVCYRNGIPCGESCVWIPCLTS); disulfide 4-18, 6-22, 11-27), the 50% inhibitory concentration (IC50) in data set [1] was determined as 2.6 ± 0.05 µM. Consider `CC(C)C[C@@H]1NC(=O)CNC(=O)[C@H](CC(N)=O)NC(=O)[C@H](CCCNC(=N)N)NC(=O)[C@H](Cc2ccccc2)NC(=O)[C@@H]2CSSC[C@@H]3NC(=O)[C@H]([C@@H](C)O)NC(=O)CNC(=O)CNC(=O)[C@H](C(C)C)NC(=O)[C@@H]4CSSC[C@H](NC(=O)[C@H](CO)NC(=O)[C@H](CSSC[C@H](NC(=O)[C@H](C(C)C)NC(=O)[C@@H]5CCCN5C1=O)C(=O)NCC(=O)N[C@@H](CCC(=O)O)C(=O)N[C@@H]([C@@H](C)O)C(=O)N4)NC(=O)CNC(=O)[C@@H]1CCCN1C(=O)[C@H]([C@@H](C)O)NC(=O)[C@H](CC(N)=O)NC3=O)C(=O)N[C@@H](CO)C(=O)N[C@@H](Cc1c[nH]c3ccccc13)C(=O)N1CCC[C@H]1C(=O)N[C@@H](C(C)C)C(=O)N2` [Vitri E], for which the IC50 in data set [1] came to 21.1 ± 2.9 µM. As for “MCoTI-II: trypsin inhibitor cyclotide extracted from the seeds of Momordica cochinchinensis; three-disulfide peptide (cyclo(SGSDGGVCPKILKKCRRDSDCPGACICRGNGYCG); disulfide (positions not given here); also: three disulfides, pairing not given here; UniProt P82409 1-34, looked up)”, the “Peptide remaining in human serum” value in data set [2] (24 h) is listed as 100%. Moreover, the “Time for which the peptide remained stable in human serum” value in data set [2] is recorded as “at least 24 h”. Turning to Varv peptide A, in the data set on glioblastoma cells, the IC50 is 2910 nM. Besides, the “Fold less TMZ required for significant cell death on co-exposure with the cyclotide” value in the data set with U-87 MG cells was 2 fold.

Consider `CC(C)C[C@@H]1NC(=O)CNC(=O)[C@H](CC(N)=O)NC(=O)[C@H](CCCNC(=N)N)NC(=O)[C@H]([C@@H](C)O)NC(=O)[C@@H]2CSSC[C@@H]3NC(=O)[C@H]([C@@H](C)O)NC(=O)CNC(=O)CNC(=O)[C@H](C(C)C)NC(=O)[C@@H]4CSSC[C@H](NC(=O)[C@H]([C@@H](C)O)NC(=O)[C@H](CSSC[C@H](NC(=O)[C@H](C(C)C)NC(=O)[C@@H]5CCCN5C1=O)C(=O)NCC(=O)N[C@@H](CCC(=O)O)C(=O)N[C@@H]([C@@H](C)O)C(=O)N4)NC(=O)CNC(=O)[C@@H]1CCCN1C(=O)[C@H]([C@@H](C)O)NC(=O)[C@H](CC(N)=O)NC3=O)C(=O)N[C@@H](CO)C(=O)N[C@@H](Cc1c[nH]c3ccccc13)C(=O)N1CCC[C@H]1C(=O)N[C@@H](C(C)C)C(=O)N2` [Kalata B1], for which the “Stability in human serum (in words)” value in data set [3] is “remained stable”.

For the molecule `CC[C@H](C)[C@@H]1NC(=O)[C@@H]2CSSC[C@@H]3NC(=O)[C@H](C(C)C)NC(=O)[C@H](CCCCN)NC(=O)[C@H](CO)NC(=O)[C@H](CCCCN)NC(=O)[C@@H]4CSSC[C@H](NC(=O)[C@H](CO)NC(=O)[C@H](CCC(=O)O)NC(=O)CNC(=O)[C@H](CSSC[C@H](NC(=O)CNC(=O)[C@H](C(C)C)NC(=O)[C@H](C(C)C)NC(=O)[C@H](CO)NC(=O)[C@H](CO)NC1=O)C(=O)N[C@@H](CO)C(=O)N4)NC(=O)[C@@H]1CCCN1C(=O)[C@H](CC(C)C)NC(=O)[C@H]([C@@H](C)O)NC(=O)CNC(=O)[C@H](CC(=O)O)NC(=O)[C@H](CCCCN)NC(=O)[C@H](Cc1ccc(O)cc1)NC3=O)C(=O)N[C@@H](C(C)C)C(=O)N[C@@H](Cc1c[nH]c3ccccc13)C(=O)N[C@@H]([C@@H](C)CC)C(=O)N1CCC[C@H]1C(=O)N2` [CyO19, Cycloviolacin O19] (cyclo(CGESCVWIPCISSVVGCSCKSKVCYKDGTLP); disulfide 1-17, 5-19, 10-24), the IC50 in data set [1] turned out to be 2.4 ± 0.07 µM.

The record behind these values is publication PMC11505038, “Kalata B1 Enhances Temozolomide Toxicity to Glioblastoma Cells” (Biomedicines, 2024).
